Marks after values point to notes of the source that are not given here.
What was measured:
[1] = system: patients suffering from advanced cancers; assay: Clinical trials in more than 200 patients with advanced cancers; assay type: in vivo, human
mice [2] = assay: Effect of the opioid receptor antagonist naloxone on morphine- and sophoridine-induced analgesia; assay type: in vivo
Method: Following procedures of the previous Examples, screening and grouping of experimental animals was carried out. […] The animals of negative control were injected with normal saline. The pain thresholds (response latency time, seconds, of each animal was recorded at 15, 30, 60, and 90 minutes after administrations, respectively. The results are summarized in Table 4 below.

mice [3] = assay: Comparison of analgesic effects and synergistic activity between sophoridine and morphine (hot plate method); assay type: in vivo; details: for Pain thresholds before admin.: before admin. (baseline)
Method: In five experimental groups, animals of each group received 25, 20, 15, 10 and 5 mg/kg of the sophoridine suspended in a normal saline solution, respectively.

Male Kunming mice = assay: Analgesic effect of sophoridine on mice model (hot plate method); assay type: in vivo; details: for Pain thresholds (seconds) After administration: 10 minutes after administration; for Pain thresholds (seconds) Before administration: before administration (baseline)
Method: The analgesic activity of sophoridine was tested in vivo in mice experimental models, using Hot Plate Method, which are known to evaluate the pain in animals.
The method that was used is described by Eddy N. B. and Leimbach D. (J. Pharm. Exp. Ther. 107: 385-393, 1953) and somewhat modification is made in the present invention.
Male Kunming mice weighing 18-22 g were used as experimental model. The analgesic effect of the sophoridine was evaluated by analysing the behavioral response of the animals on a hot surface at 55° C.±0.5° C. The alkaloid compounds being tested were administered intravenously through the tail vein 10 minutes before starting the test.
Briefly, the process consisted of placing the animals on the plate and keeping them in a plastic cylinder 22 cm diameter and 11 cm high. The time the animals took to lick a paw or jump off the hot surface was determined. The animals were selected before starting the test that those with response latency (the pain threshold values before administrations) longer than 30 seconds were excluded from the experiment. The certificated animals divided into six groups (10 animals/group). Five experimental groups received 25, 20, 15, 10 and 5 mg/kg of the sophoridine suspended in a normal saline solution, respectively. The control group received treatment only with the solvent (normal saline).
10 minutes after administering the alkaloids being tested, the test was repeated and the maximum response latency time (seconds) took the animals to lick the hindlimb or jump off and run away was again recorded.

Kunming mice = assay: Analgesic effect of sophoridine on mice models (acetic acid induced writhing method); assay type: in vivo; details: for Number of writhe (X ± SD): 0.6% acetic acid i.p.
Method: The analgesic activity of sophoridine was also tested in vivo in mice experimental models, using acetic acid induced writhing Method which are known to evaluate the pain in animals. Writhing test is a standard procedure for detecting and comparing analgesic activity in laboratory animals, and generally correlates well with human efficacy.
30 Male and 30 female Kunming mice weighing 18-22 g were used as experimental models. […] Then, the animals randomly divided into six groups, each group includes 10 animals. Five experimental groups intravenously received 25, 20, 15, 10 and 5 mg/Kg of the sophoridine suspended in a normal saline solution via the tail vein, respectively.
The frequency of writhing syndrome was counted for 5 minutes from 15 minutes after the injection of spophoridine or placebo. The control group received treatment only with the solvent (normal saline).

[4] = system: acetylcholine level in central nervous system; assay: Preliminary study on mechanism of analgesic effect (acetylcholine level in CNS)
Source text: Therefore, sophoridine and derivatives thereof are also useful for treating patients suffering from neurodegenerative diseases, senile dementia of the Alzheimer's type (SDAT) and Pakinson's disease (PD).

tumor cells = details: cited from earlier work
[5] = sophoridine 25 mg/kg i.v., hot plate 55°C

Question: For `O=C1CCC[C@@H]2[C@H]3CCCN4CCC[C@H](CN12)[C@@H]34` [Sophoridine], which “effect on pain caused by malignant growth of cancer tissues (in words)” value [1] is on record?
Answer: significantly inhibit or alleviate mild to severe pain

Question: What about the “effect on proliferation of tumor cells (in words)” value [1] of the same compound?
Answer: inhibit proliferation of tumor cells

Question: And the “side effects of tolerance and addiction (in words)” value ([1]; higher doses for a long term)?
Answer: did not develop any side effects of tolerance and addiction

Question: What about the “naloxone counteracting the analgesic effect (in words)” value (mice [2]; naloxone 2.0 mg/kg, morphine 10 mg/kg or sophoridine 20 mg/kg) of the same compound?
Answer: ineffective in counteracting the effect

Question: And the “Pain thresholds after admin. (seconds) 15 min.” value (mice [2]; sophoridine alone 20 mg/kg i.v., 15 min.)?
Answer: 34.5 ± 16.2 s

Question: And the “Pain thresholds after admin. (seconds) 30 min.” value (mice [2]; sophoridine alone 20 mg/kg i.v., 30 min.)?
Answer: 23.8 ± 7.0 s

Question: And the “Pain thresholds after admin. (seconds) 60 min.” value (mice [2]; sophoridine alone 20 mg/kg i.v., 60 min.)?
Answer: 21.8 ± 8.9 s

Question: And the “Pain thresholds after admin. (seconds) 90 min.” value (mice [2]; sophoridine alone 20 mg/kg i.v., 90 min.)?
Answer: 18.3 ± 6.6 s

Question: And the “Pain thresholds before admin.” value (mice [2]; sophoridine alone 20 mg/kg i.v., before admin. (baseline))?
Answer: 17.9 ± 2.6 s

Question: And the “Pain thresholds after admin. (seconds) 15 min.” value (mice [3]; sophoridine 5 mg/kg)?
Answer: 17.5 ± 3.3 s

Question: What about the “Pain thresholds after admin. (seconds) 30 min.” value (mice [3]; sophoridine 5 mg/kg) of the same compound?
Answer: 16.6 ± 6.5 s

Question: And the “Pain thresholds after admin. (seconds) 60 min.” value (mice [3]; sophoridine 5 mg/kg)?
Answer: 16.0 ± 4.5 s

Question: And the “Pain thresholds after admin. (seconds) 90 min.” value (mice [3]; sophoridine 5 mg/kg)?
Answer: 19.3 ± 5.4 s

Question: And the “Pain thresholds before admin.” value (mice [3]; sophoridine 5 mg/kg)?
Answer: 17.45 ± 2.6 s

Question: And the “Pain thresholds after admin. (seconds) 15 min.” value (mice [3]; sophoridine 10 mg/kg)?
Answer: 20.2 ± 7.2 s

Question: What about the “Pain thresholds after admin. (seconds) 30 min.” value (mice [3]; sophoridine 10 mg/kg) of the same compound?
Answer: 28.0 ± 18.3 s

Question: What about the “Pain thresholds after admin. (seconds) 60 min.” value (mice [3]; sophoridine 10 mg/kg) of the same compound?
Answer: 12.6 ± 5.9 s

Question: And the “Pain thresholds after admin. (seconds) 90 min.” value (mice [3]; sophoridine 10 mg/kg)?
Answer: 20.5 ± 15.0 s

Question: And the “Pain thresholds before admin.” value (mice [3]; sophoridine 10 mg/kg)?
Answer: 18.6 ± 4.9 s

Question: And the “Pain thresholds after admin. (seconds) 15 min.” value (mice [3]; sophoridine 15 mg/kg)?
Answer: 32.9 ± 19.2 s

Question: What about the “Pain thresholds after admin. (seconds) 30 min.” value (mice [3]; sophoridine 15 mg/kg) of the same compound?
Answer: 31.3 ± 17.5 s

Question: What about the “Pain thresholds after admin. (seconds) 60 min.” value (mice [3]; sophoridine 15 mg/kg) of the same compound?
Answer: 15.2 ± 10.2 s

Question: And the “Pain thresholds after admin. (seconds) 90 min.” value (mice [3]; sophoridine 15 mg/kg)?
Answer: 15.8 ± 5.7 s

Question: What about the “Pain thresholds before admin.” value (mice [3]; sophoridine 15 mg/kg) of the same compound?
Answer: 16.45 ± 3.9 s

Question: What about the “Pain thresholds after admin. (seconds) 15 min.” value (mice [3]; sophoridine 20 mg/kg) of the same compound?
Answer: 36.8 ± 18.2 s

Question: What about the “Pain thresholds after admin. (seconds) 30 min.” value (mice [3]; sophoridine 20 mg/kg) of the same compound?
Answer: 24.6 ± 7.7 s

Question: What about the “Pain thresholds after admin. (seconds) 60 min.” value (mice [3]; sophoridine 20 mg/kg) of the same compound?
Answer: 23.0 ± 9.9 s

Question: What about the “Pain thresholds after admin. (seconds) 90 min.” value (mice [3]; sophoridine 20 mg/kg) of the same compound?
Answer: 19.3 ± 6.6 s

Question: What about the “Pain thresholds before admin.” value (mice [3]; sophoridine 20 mg/kg) of the same compound?
Answer: 16.9 ± 2.5 s

Question: What about the “Pain thresholds after admin. (seconds) 15 min.” value (mice [3]; sophoridine 25 mg/kg) of the same compound?
Answer: 44.3 ± 14.9 s

Question: And the “Pain thresholds after admin. (seconds) 30 min.” value (mice [3]; sophoridine 25 mg/kg)?
Answer: 28.3 ± 11.4 s

Question: And the “Pain thresholds after admin. (seconds) 60 min.” value (mice [3]; sophoridine 25 mg/kg)?
Answer: 20.3 ± 4.9 s

Question: And the “Pain thresholds after admin. (seconds) 90 min.” value (mice [3]; sophoridine 25 mg/kg)?
Answer: 18.8 ± 6.3 s

Question: What about the “Pain thresholds before admin.” value (mice [3]; sophoridine 25 mg/kg) of the same compound?
Answer: 15.4 ± 4.0 s

Question: And the “analgesic activity compared to morphine hydrochloride (in words)” value (mice [3]; sophoridine in higher doses, hot plate)?
Answer: comparable or better analgesic activity

Question: What about the “analgesic activity in mice models (in words)” value (Male Kunming mice; hot plate method, 5-25 mg/kg i.v.) of the same compound?
Answer: good analgesic activity

Question: And the “Pain thresholds (seconds) After administration” value (Male Kunming mice; sophoridine 5 mg/kg i.v.)?
Answer: 25.8 ± 20.74 s

Question: What about the “Pain thresholds (seconds) Before administration” value (Male Kunming mice; sophoridine 5 mg/kg i.v.) of the same compound?
Answer: 16.3 ± 6.02 s

Question: And the “Pain thresholds (seconds) After administration” value (Male Kunming mice; sophoridine 10 mg/kg i.v.)?
Answer: 24.8 ± 15.99 s

Question: What about the “Pain thresholds (seconds) Before administration” value (Male Kunming mice; sophoridine 10 mg/kg i.v.) of the same compound?
Answer: 11.7 ± 4.59 s

Question: And the “Pain thresholds (seconds) After administration” value (Male Kunming mice; sophoridine 15 mg/kg i.v.)?
Answer: 38.5 ± 17.19 s

Question: And the “Pain thresholds (seconds) Before administration” value (Male Kunming mice; sophoridine 15 mg/kg i.v.)?
Answer: 14.7 ± 4.62 s

Question: And the “Pain thresholds (seconds) After administration” value (Male Kunming mice; sophoridine 20 mg/kg i.v.)?
Answer: 57.1 ± 6.10 s

Question: What about the “Pain thresholds (seconds) Before administration” value (Male Kunming mice; sophoridine 20 mg/kg i.v.) of the same compound?
Answer: 12.4 ± 4.25 s

Question: And the “Pain thresholds (seconds) After administration” value (Male Kunming mice; [5])?
Answer: 48.6 ± 19.14 s

Question: And the “Pain thresholds (seconds) Before administration” value (Male Kunming mice; [5])?
Answer: 16.4 ± 6.48 s

Question: And the “Number of writhe (X ± SD)” value (Kunming mice; sophoridine 5 mg/kg i.v.)?
Answer: 23.2 ± 6.43

Question: And the “Number of writhe (X ± SD)” value (Kunming mice; sophoridine 10 mg/kg i.v.)?
Answer: 14.1 ± 9.64

Question: What about the “Number of writhe (X ± SD)” value (Kunming mice; sophoridine 15 mg/kg i.v.) of the same compound?
Answer: 9.9 ± 6.3

Question: What about the “Number of writhe (X ± SD)” value (Kunming mice; sophoridine 20 mg/kg i.v.) of the same compound?
Answer: 1.5 ± 1.35

Question: And the “Number of writhe (X ± SD)” value (Kunming mice; sophoridine 25 mg/kg i.v., counted for 5 minutes from 15 minutes after injection)?
Answer: 0***

Question: And the “analgesic activity in mice models (in words)” value (Kunming mice; writhing method, 5-25 mg/kg i.v.)?
Answer: good analgesic activity

Question: And the “acetylcholine level in central nervous system (in words)” value [4]?
Answer: significant increasing acetylcholine level

Question: And the “anti-tumor activities (in words)” value (tumor cells; Xuemei Li et al. 1987)?
Answer: tumor cell-killing and tumor cell growth-inhibiting activities

Question: And the “effect on functions of hematopoietic and immunological systems (in words)” value (tumor cells; Xuemei Li et al.)?
Answer: does not inhibit the functions of hematopoietic and immunological systems

Question: Which “effect on pain caused by malignant growth of cancer tissues (in words)” value [1] does the source give for `O=C1C=CC[C@@H]2[C@H]3CCCN4CCC[C@@H](CN12)[C@@H]34` [sophocarpine] here?
Answer: significantly inhibit or alleviate mild to severe pain

Question: What about the “effect on proliferation of tumor cells (in words)” value [1] of the same compound?
Answer: inhibit proliferation of tumor cells
